Results reported in US20060106026A1, “4-(4-methylpiperazin-1-ylmethyl)-n-[4-pyridin-3-yl)pyrimidin-2-ylamino)phenyl]-benzamide for treating anaplastic thyroid cancer” (priority 2002, published 2006).

System: FRO cells
Conditions: single daily administration of 50 mg/kg over 14 consecutive days, i.p.
Experimental: Mouse xenograft model. All mice were maintained in the Nagasaki University (Nagasaki, Japan) animal facility and all animal experiments described in this study were conducted in accordance with the principles and procedures outlined in the Guide for the Care and Use of Laboratory Animals of the Nagasaki University School of Medicine. Five million FRO cells suspended in RPMI 1640 were injected s.c. into the flanks of 8-week-old female BalB/c nu/nu mice (Charles-River Japan, Tokyo, Japan). Tumor sizes were measured every other day with calipers and tumor volumes were calculated according to the formula: a^2×b×0.4 where a is the smallest diameter and b is the diameter perpendicular to a. […] Mice in the control group received injections of pure water. The body weight feeding behavior and motor activity of each animal were monitored as indicators of general health.
Statistical analysis: Data are presented as mean ±SD unless otherwise specified. Student's t-test and Mann Whitney U test were used for comparison between two groups for parametric and nonparametric data, respectively. A p value <0.05 is considered statistically significant.

`CS(=O)(=O)O.Cc1ccc(NC(=O)c2ccc(CN3CCN(C)CC3)cc2)cc1Nc1nccc(-c2cccnc2)n1` [SALT I] was tested, and the anti-tumor effect was “strong anti-tumor effect”.
